The term IC50 denotes the point on the concentration scale where inhibition reaches its midpoint. A higher IC50 goes with weaker potency.

The target of the test is Xanthine dehydrogenase/oxidase (Bos taurus, UniProt P80457). Nature of the test: Inhibition of bovine milk xanthine oxidase using xanthine as substrate preincubated for 15 mins followed by substrate addition by spectrophotometric method.
Chain of Xanthine dehydrogenase/oxidase (P80457 whole entry): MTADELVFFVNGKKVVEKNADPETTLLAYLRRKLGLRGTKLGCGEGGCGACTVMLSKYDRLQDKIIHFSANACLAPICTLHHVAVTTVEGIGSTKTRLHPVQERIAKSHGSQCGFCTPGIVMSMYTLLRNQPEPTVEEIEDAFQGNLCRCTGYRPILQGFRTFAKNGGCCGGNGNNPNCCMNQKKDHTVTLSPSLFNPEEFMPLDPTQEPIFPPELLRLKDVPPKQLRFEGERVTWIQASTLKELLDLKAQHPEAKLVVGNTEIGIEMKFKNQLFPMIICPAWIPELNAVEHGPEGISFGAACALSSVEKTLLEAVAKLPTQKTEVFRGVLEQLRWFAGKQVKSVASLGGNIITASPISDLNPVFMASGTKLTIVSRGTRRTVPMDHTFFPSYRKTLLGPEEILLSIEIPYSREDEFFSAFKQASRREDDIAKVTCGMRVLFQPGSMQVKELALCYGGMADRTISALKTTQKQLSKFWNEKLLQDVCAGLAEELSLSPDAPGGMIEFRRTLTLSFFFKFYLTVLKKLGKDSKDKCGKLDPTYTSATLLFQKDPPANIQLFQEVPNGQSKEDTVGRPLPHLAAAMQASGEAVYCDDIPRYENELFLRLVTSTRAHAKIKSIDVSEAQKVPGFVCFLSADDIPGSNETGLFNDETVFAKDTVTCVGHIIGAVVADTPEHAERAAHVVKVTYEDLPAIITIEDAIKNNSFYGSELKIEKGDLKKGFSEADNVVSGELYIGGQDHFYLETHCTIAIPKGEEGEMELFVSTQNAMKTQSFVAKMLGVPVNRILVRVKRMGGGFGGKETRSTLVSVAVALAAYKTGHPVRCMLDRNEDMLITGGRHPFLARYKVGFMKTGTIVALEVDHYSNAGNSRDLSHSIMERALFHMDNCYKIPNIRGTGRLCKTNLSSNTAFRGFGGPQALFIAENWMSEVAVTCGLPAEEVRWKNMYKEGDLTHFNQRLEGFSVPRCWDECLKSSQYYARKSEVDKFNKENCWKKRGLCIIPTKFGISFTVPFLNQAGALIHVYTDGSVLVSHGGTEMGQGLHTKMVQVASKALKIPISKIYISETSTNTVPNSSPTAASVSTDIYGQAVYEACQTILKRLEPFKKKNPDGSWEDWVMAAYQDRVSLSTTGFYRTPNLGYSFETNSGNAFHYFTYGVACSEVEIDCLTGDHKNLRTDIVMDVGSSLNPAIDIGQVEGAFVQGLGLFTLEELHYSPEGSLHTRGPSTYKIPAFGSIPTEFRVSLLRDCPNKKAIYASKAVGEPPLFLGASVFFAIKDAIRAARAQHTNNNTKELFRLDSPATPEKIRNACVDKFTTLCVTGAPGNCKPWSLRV
For `C[C@]12C[C@@H](O)[C@H](O)[C@](C)(CO)[C@@H]1CC[C@]1(C)[C@@H]2CC=C2[C@@H]3C[C@](C)(C(=O)O)[C@@H](O)C[C@]3(C(=O)O)CC[C@]21C`, the IC50 was more than 100 µM. Turning to `C=C1CC[C@]2(C(=O)O[C@@H]3O[C@H](CO[C@@H]4O[C@H](CO)[C@@H](O)[C@H](O)[C@H]4O)[C@@H](O)[C@H](O)[C@H]3O)CC[C@]3(C)C(=CC[C@@H]4[C@@]5(C)CC[C@H](O[C@@H]6OC[C@H](O)[C@H](O[C@@H]7OC[C@H](O)[C@H](O)[C@H]7O)[C@H]6O)C(C)(C)[C@@H]5CC[C@]43C)[C@@H]2C1`, the half-maximal inhibitory concentration (IC50) was more than 100 µM. In the case of `C[C@H]1O[C@@H](O[C@H]2[C@H](OC[C@]3(C)[C@@H]4CC[C@]5(C)[C@H](CC=C6[C@@H]7C[C@](C)(O)[C@@H](O)C[C@]7(C(=O)O)CC[C@]65C)[C@@]4(C)CC[C@@H]3O)O[C@H](CO)[C@@H](O)[C@@H]2O)[C@H](O)[C@@H](O)[C@@H]1O`, the IC50 worked out at 0.2 µM. As to `C[C@]12CC[C@H](O)[C@](C)(CO[C@@H]3O[C@H](CO)[C@@H](O)[C@H](O)[C@H]3O)[C@@H]1CC[C@]1(C)[C@@H]2CC=C2[C@@H]3C[C@](C)(C(=O)O)[C@@H](O)C[C@]3(C(=O)O)CC[C@]21C`, inhibition was half-maximal at 49.2 µM (IC50).

Regarding `C=C1CC[C@]2(C(=O)O[C@@H]3O[C@H](CO[C@@H]4O[C@H](CO)[C@@H](O)[C@H](O)[C@H]4O)[C@@H](O)[C@H](O)[C@H]3O)CC[C@]3(C)C(=CC[C@@H]4[C@@]5(C)CC[C@H](O[C@@H]6OC[C@H](O)[C@H](O)[C@H]6O)[C@@](C)(CO)[C@@H]5CC[C@]43C)[C@@H]2C1`, the IC50 was determined as 79.6 µM.

`C=C1CC[C@]2(C(=O)O[C@H]3O[C@@H](CO[C@H]4O[C@@H](CO)[C@H](O)[C@@H](O)[C@@H]4O)[C@H](O)[C@@H](O)[C@@H]3O)CC[C@]3(C)C(=CC[C@@H]4[C@@]5(C)CC[C@H](O[C@H]6OC[C@@H](O)[C@@H](O)[C@@H]6O[C@@H]6O[C@@H](C)[C@H](O)[C@@H](O[C@H]7OC[C@@H](O)[C@@H](O)[C@@H]7O)[C@H]6O)C(C)(C)[C@@H]5CC[C@]43C)[C@@H]2C1` registered a half-maximal inhibitory concentration (IC50) of more than 100 µM. `C=C1CC[C@]2(C(=O)O)CC[C@]3(C)C(=CC[C@@H]4[C@@]5(C)CC[C@H](O[C@@H]6OC[C@H](O)[C@H](O)[C@H]6O[C@@H]6O[C@@H](C)[C@H](O)[C@@H](O)[C@H]6O)C(C)(C)[C@@H]5CC[C@]43C)[C@@H]2C1` gave an IC50 of 18.5 µM. For the molecule `C=C1CC[C@]2(C(=O)O[C@@H]3O[C@H](CO[C@@H]4O[C@H](CO)[C@@H](O[C@@H]5O[C@@H](C)[C@H](O)[C@@H](O)[C@H]5O)[C@H](O)[C@H]4O)[C@@H](O)[C@H](O)[C@H]3O)CC[C@]3(C)C(=CC[C@@H]4[C@@]5(C)CC[C@H](O[C@@H]6OC[C@H](O)[C@H](O[C@@H]7O[C@H](C(=O)O)[C@@H](O)[C@H](O)[C@H]7O)[C@H]6O)[C@@](C)(CO)[C@@H]5CC[C@]43C)[C@@H]2C1`, the IC50 was determined as 91.3 µM. As for `C=C1CC[C@@]2(C(=O)O[C@@H]3O[C@H](CO[C@@H]4O[C@H](CO)[C@@H](O)[C@H](O)[C@H]4O)[C@@H](O)[C@H](O)[C@H]3O)CC[C@@]3(C)C(=CC[C@H]4[C@]5(C)CC[C@@H](O[C@@H]6OC[C@H](O)[C@H](O)[C@H]6O[C@@H]6OC[C@H](O)[C@H](O[C@H]7OC[C@@H](O)[C@@H](O)[C@@H]7O)[C@H]6O)C(C)(C)[C@H]5CC[C@@]43C)[C@H]2C1`, the IC50 was more than 100 µM. Regarding `C=C1CC[C@]2(C(=O)O[C@H]3O[C@@H](CO[C@@H]4O[C@H](CO)[C@@H](O[C@@H]5O[C@@H](C)[C@H](O)[C@@H](O)[C@H]5O)[C@H](O)[C@H]4O)[C@H](O)[C@@H](O)[C@@H]3O)CC[C@]3(C)C(=CC[C@@H]4[C@@]5(C)CC[C@H](O[C@H]6OC[C@@H](O)[C@@H](O[C@H]7OC[C@@H](O)[C@@H](O)[C@@H]7O[C@@H]7OC[C@@H](O)[C@H](O[C@H]8OC[C@@H](O)[C@@H](O)[C@@H]8O)[C@H]7O)[C@@H]6O)C(C)(C)[C@@H]5CC[C@]43C)[C@@H]2C1`, the IC50 is more than 100 µM. As to `C[C@@H]1O[C@@H](O[C@@H]2[C@@H](O[C@H]3CC[C@]4(C)[C@H]5CC=C6[C@@H]7C[C@H](CO)CC[C@]7(C(=O)O[C@H]7O[C@@H](CO[C@@H]8O[C@H](CO)[C@@H](O[C@@H]9O[C@@H](C)[C@H](O)[C@@H](O)[C@H]9O)[C@H](O)[C@H]8O)[C@H](O)[C@@H](O)[C@@H]7O)CC[C@@]6(C)[C@]5(C)CC[C@H]4C3(C)C)OC[C@@H](O)[C@H]2O)[C@H](O)[C@H](O)[C@H]1O`, the 50% inhibitory concentration (IC50) is more than 100 µM.

Source of the values: ChEMBL document CHEMBL3797199, “Anti-gout nor-oleanane triterpenoids from the leaves of Stauntonia brachyanthera” (Bioorg Med Chem Lett, 2016).
